Entries after “also recorded” stand apart in the source; their conditions may differ. Where two headings read alike, the source gives them in different places. No end group written: not given here.
T1: MLLT4 PDZ (Homo sapiens, UniProt P55196)
T1 construct: MLLT4; P55196; 1002-1095; His-MBP (N, cleaved yes); made in house; host or cells: E. coli BL21 Star (DE3)
T1 sequence (P55196 1002-1095): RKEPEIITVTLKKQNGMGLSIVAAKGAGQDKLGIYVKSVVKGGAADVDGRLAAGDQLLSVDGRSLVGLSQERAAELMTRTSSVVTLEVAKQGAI

T2: MPP5 PDZ (Homo sapiens, UniProt Q8N3R9)
T2 construct: MPP5 (residues 238–336); GST (N, cleaved yes); made in house; host or cells: E. coli BL21 Star (DE3)
T2 sequence (Q8N3R9 238-336): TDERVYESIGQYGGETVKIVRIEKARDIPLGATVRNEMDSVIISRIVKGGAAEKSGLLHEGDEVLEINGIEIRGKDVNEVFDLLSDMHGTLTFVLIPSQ

T3: LNX2 PDZ2 (Homo sapiens, UniProt Q8N448)
T3 construct: LNX2-2 (PDZ2; residues 334–426); His tag (N, cleaved yes); made in house; host or cells: E. coli BL21 Star (DE3)
T3 sequence (Q8N448 334-426): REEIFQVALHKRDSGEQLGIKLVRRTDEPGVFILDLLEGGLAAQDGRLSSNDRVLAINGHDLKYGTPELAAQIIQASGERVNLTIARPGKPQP

T4: ZO1 PDZ2 (Homo sapiens, UniProt Q07157)
T4 construct: ZO-1-2 (PDZ2; residues 184–264); His tag (N); made in house; host or cells: E. coli BL21 Star (DE3)
T4 sequence (Q07157 184-264): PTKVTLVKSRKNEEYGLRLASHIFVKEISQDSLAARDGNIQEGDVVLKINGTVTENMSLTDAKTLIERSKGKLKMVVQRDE

T5: LNX2 PDZ2 (human, UniProt Q8N448 334-426)
T5 construct: second PDZ domain of human LNX2, residues 334-426, numbering of the full-length human protein; […]; Labelled on amines with RED-NHS dye for MST; also called LNX2-2; not shown: His tag, N-terminal, cleaved
T5 sequence (looked up): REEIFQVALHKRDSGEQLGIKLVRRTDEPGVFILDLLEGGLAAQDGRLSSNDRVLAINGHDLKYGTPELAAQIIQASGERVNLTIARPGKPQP

T6: MPP5 PDZ (human, UniProt Q8N3R9 238-336)
T6 construct: PDZ domain of human MPP5 (PALS1), residues 238-336, numbering of the full-length human protein; […]; Labelled on amines with RED-NHS dye for MST; also called PALS1 PDZ; not shown: GST, N-terminal, cleaved
T6 sequence (looked up): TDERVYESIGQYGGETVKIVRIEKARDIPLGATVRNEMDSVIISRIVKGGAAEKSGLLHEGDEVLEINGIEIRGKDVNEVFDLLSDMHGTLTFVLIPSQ

T7: ZO-1 PDZ2 (human, UniProt Q07157 184-264)
T7 construct: second PDZ domain of human ZO-1 (TJP1), residues 184-264, numbering of the full-length human protein; […]; Labelled on amines with RED-NHS dye for MST; also called TJP1 PDZ2; ZO-1-2
T7 sequence (looked up): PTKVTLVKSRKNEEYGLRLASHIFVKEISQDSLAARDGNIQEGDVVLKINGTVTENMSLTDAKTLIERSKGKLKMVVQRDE

T8: MLLT4 PDZ (human, UniProt P55196 1002-1095)
T8 construct: PDZ domain of human MLLT4 (Afadin); the residues named in the structure (1014-1022, 1071) fit 1002-1095; also called Afadin PDZ; not shown: His tag, N-terminal, cleaved; MBP, N-terminal, cleaved
T8 sequence (looked up): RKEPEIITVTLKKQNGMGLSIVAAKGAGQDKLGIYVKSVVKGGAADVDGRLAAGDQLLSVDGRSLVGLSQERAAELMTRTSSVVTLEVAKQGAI


What was measured:
[1] = target: T1, MLLT4 PDZ; assay: Microscale thermophoresis, E PBM peptide vs MLLT4 PDZ; type: binding; settings: MST
[2] = target: T2, MPP5 PDZ; assay: Microscale thermophoresis, E PBM peptide vs MPP5 PDZ; type: binding
[3] = target: T3, LNX2 PDZ2; assay: Microscale thermophoresis, E PBM peptide vs LNX2 PDZ2; type: binding
[4] = target: T4, ZO1 PDZ2; assay: Microscale thermophoresis, E PBM peptide vs ZO1 PDZ2; type: binding
[5] = target: T9, PARD3 PDZ3 (Homo sapiens, UniProt Q8TEW0); assay: Microscale thermophoresis, E PBM peptide vs PARD3 PDZ3; type: binding; settings: MST
T9 construct: PARDD3-3 (PDZ3; residues 582–685); His tag (N, cleaved yes); made in house; host or cells: E. coli BL21 Star (DE3)

[6] = target: T5, LNX2 PDZ2; assay: MST; […]; PBS tween 20 0.05%; room temperature; […]; duplicate; settings: both partners purified
[7] = target: T6, MPP5 PDZ; assay: as above; settings: both partners purified
[8] = target: T7, ZO-1 PDZ2; assay: as above; settings: both partners purified
[9] = target: T8, MLLT4 PDZ; assay: as above; settings: both partners purified
[10] = target: T10, PARD3 PDZ3 (human, UniProt Q8TEW0 582-685); assay: as above; settings: both partners purified
T10 construct: third PDZ domain of human PARD3, residues 582-685, numbering of the full-length human protein; […]; Labelled on amines with RED-NHS dye for MST; also called PARDD3-3; not shown: His tag, N-terminal, cleaved

[11] = Monolith NT.115, PDZ labeled RED-NHS, acetylated 12-mer peptide serially diluted, PBS tween 20 0.05%, room temperature, 80% LED, 20% MST power, MST time 30 s, averaged, ± standard deviation, two independent experiments
[12] = either no interaction, or affinity outside the tested concentration range, read-out: Kd, outside the tested concentration range

T9 sequence (Q8TEW0 582-685): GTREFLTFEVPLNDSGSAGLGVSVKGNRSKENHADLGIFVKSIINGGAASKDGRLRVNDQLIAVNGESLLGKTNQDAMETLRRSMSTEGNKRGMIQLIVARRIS
T10 sequence (Q8TEW0 582-685): as above

Row | Molecule | Kd [1, 11] | Kd [1, 12] [µM] | Effect of P71L on affinity vs WT [2] | Change of Kd compared with SARS-CoV-2 WT [3] | Effect of P71L on affinity vs WT [4] | Kd [5, 11] | Kd [5, 12] [µM] | Kd [6] [µM] | Kd [7] [µM] | Kd [8] [µM] | Kd [9] [µM] | Kd [10] [µM]
1 | Ac-NLNSSRVLDLLV [SARS-CoV-2 P71L] | not detectable in the tested concentration range; also recorded: No interaction detected | > 1000 | does not significantly impact the affinity | almost six times lower | considerably reduces | not detectable in the tested concentration range; also recorded: No interaction detected | > 1000 | – | – | – | – | –
2 | NLNSSRVLDLLV (also called P71L PBM peptide; SARS-CoV-2 P71L) [C-terminal SARS-CoV-2-E PBM P71L peptide of the beta variant] | – | – | – | – | – | – | – | 47 | 22 | 133 | > 1000 | > 1000

— article PMC8909127 (Frontiers in Microbiology, 2022)
